Assays:
[1] = molecular target: GST-tagged KRAS-G12V (2-169) (Homo sapiens, UniProt P01116, G12V); test: Nucleotide exchange assay (NEA), SOS-mediated, HTRF, KRAS G12V; type: biochemical; conditions: Table 4; IC50 extracted at 90 min; 80 nM SOS
In short: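 Exchange onto fluorescent GTP-DY-647P1 (150 nM final) catalysed by 80 nM SOS1cat was followed by Tb-anti-GST HTRF at RT for up to 90 min, after 1 h compound pre-incubation with 0.25 nM GST-tagged KRAS-G12V (2-169), pH 7.3. DMSO = 0%, no-SOS blank = 100%; 4-parameter IC50 taken at 90 min.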

[2] = molecular target: GST-tagged KRAS-G12D (2-169) (Homo sapiens, UniProt P01116, G12D); test: Nucleotide exchange assay (NEA), SOS-mediated, HTRF, KRAS G12D; type: biochemical; conditions: Table 4; IC50 extracted at 30 min; 20 nM SOScat; read-out: NEA G12D IC50
GST-tagged KRAS-G12D (2-169), sequence (P01116 2-169 isoform P01116-2 G12D): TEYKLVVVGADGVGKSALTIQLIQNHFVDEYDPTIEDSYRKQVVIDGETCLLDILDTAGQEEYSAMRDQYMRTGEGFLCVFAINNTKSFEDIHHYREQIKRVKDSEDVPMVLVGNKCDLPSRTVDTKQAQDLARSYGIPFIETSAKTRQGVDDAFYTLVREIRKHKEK
In short: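 SOS1cat-driven loading of fluorescent GTP-DY-647P1 (150 nM) onto GST-KRAS-G12D (2-169, 0.25 nM) read by time-resolved FRET; SOScat 20 nM, compound preincubated with KRAS 1 h at RT. Signal blanked to no-SOS reactions, normalized to DMSO; IC50 fitted from the 30-min read.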

GST-tagged KRAS-G12V (2-169), sequence (P01116 2-169 isoform P01116-2 G12V): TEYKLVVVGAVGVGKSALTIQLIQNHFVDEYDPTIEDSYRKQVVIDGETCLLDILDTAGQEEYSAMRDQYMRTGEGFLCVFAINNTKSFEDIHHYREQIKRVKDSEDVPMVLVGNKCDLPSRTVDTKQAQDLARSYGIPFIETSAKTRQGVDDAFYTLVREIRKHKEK

Compound: CCN(c1nc(OC[C@@]23CCCN2C[C@H](F)C3)nc(N2CC3(C2)c2c(sc(N)c2C#N)CN3CC(F)F)n1)[C@H](C)c1cccnc1N [Compound 227, 2-amino-1′-[4-[[(1R)-1-(2-amino-3-pyridyl)ethyl]-ethyl-amino]-6-[[(2R,8S)-2-fluoro-1,2,3,5,6,7-hexahydropyrrolizin-8-yl]methoxy]-1,3,5-triazin-2-yl]-5-(2,2-difluoroethyl)spiro[6H-thieno[2,3-c]pyrrole-4,3′-azetidine]-3-carbonitrile]
- IC50 [1]: 10 to 100 nM
- IC50 [2]: 100 to 1000 nM

Compound: CCN(c1nc(OC[C@@]23CCCN2C[C@H](F)C3)nc(N2CC3(C2)c2c(sc(N)c2C#N)CN3CC#N)n1)[C@H](C)c1cccnc1N [Compound 228, 2-amino-1′-[4-[[(1R)-1-(2-amino-3-pyridyl)ethyl]-ethyl-amino]-6-[[(2R,8S)-2-fluoro-1,2,3,5,6,7-hexahydropyrrolizin-8-yl]methoxy]-1,3,5-triazin-2-yl]-5-(cyanomethyl)spiro[6H-thieno[2,3-c]pyrrole-4,3′-azetidine]-3-carbonitrile]
- IC50 [1]: 100 to 1000 nM
- IC50 [2]: 1000 to 20000 nM

Compound: C[C@H](c1ccc(P(C)(C)=O)cc1)N(C)c1nc(OC[C@@]23CCCN2C[C@H](F)C3)nc(N2CC3(C2)SCc2sc(N)c(C#N)c23)n1 [Compound 229, 2′-amino-1-(4-(((R)-1-(4-(dimethylphosphoryl)phenyl)ethyl)(methyl)amino)-6-(((2R,7aS)-2-fluorotetrahydro-1H-pyrrolizin-7a(5H)-yl)methoxy)-1,3,5-triazin-2-yl)-6′H-spiro[azetidine-3,4′-thieno[3,4-b]thiophene]-3′-carbonitrile]
- IC50 [1]: 1000 to 20000 nM
- IC50 [2]: 1000 to 20000 nM

Compound: Cc1ccc(C(C)N(C)c2nc(OC[C@@]34CCCN3C[C@H](F)C4)nc(N3CC4(C3)SCc3sc(N)c(C#N)c34)n2)c(N)n1 (stereo partly drawn) [Compound 230, 2′-amino-1-(4-((1-(2-amino-6-methylpyridin-3-yl)ethyl)(methyl)amino)-6-(((2R,7aS)-2-fluorotetrahydro-1H-pyrrolizin-7a(5H)-yl)methoxy)-1,3,5-triazin-2-yl)-6′H-spiro[azetidine-3,4′-thieno[3,4-b]thiophene]-3′-carbonitrile]
- IC50 [1]: 1000 to 20000 nM
- IC50 [2]: 1000 to 20000 nM

Compound: CC(c1ccc(P(C)(C)=O)cc1N)N(C)c1nc(OC[C@@]23CCCN2C[C@H](F)C3)nc(N2CC3(C2)SCc2sc(N)c(C#N)c23)n1 (stereo partly drawn) [Compound 231, 2′-amino-1-(4-((1-(2-amino-4-(dimethylphosphoryl)phenyl)ethyl)(methyl)amino)-6-(((2R,7aS)-2-fluorotetrahydro-1H-pyrrolizin-7a(5H)-yl)methoxy)-1,3,5-triazin-2-yl)-6′H-spiro[azetidine-3,4′-thieno[3,4-b]thiophene]-3′-carbonitrile]
- IC50 [1]: ≥ 20000 nM
- IC50 [2]: ≥ 20000 nM

Compound: C[C@H](c1ccc(P(C)(C)=O)nc1N)N(C)c1nc(OC[C@@]23CCCN2C[C@H](F)C3)nc(N2CC3(C2)SCc2sc(N)c(C#N)c23)n1 [Compound 232, 2-amino-1′-[4-[1-(2-amino-6-dimethylphosphoryl-3-pyridyl)ethyl-methyl-amino]-6-[[(2R,8S)-2-fluoro-1,2,3,5,6,7-hexahydropyrrolizin-8-yl]methoxy]-1,3,5-triazin-2-yl]spiro[6H-thieno[3,4-b]thiophene-4,3′-azetidine]-3-carbonitrile]
- IC50 [1]: 100 to 1000 nM
- IC50 [2]: 1000 to 20000 nM

Compound: COc1ccc(C(C)N(C)c2nc(OC[C@@]34CCCN3C[C@H](F)C4)nc(N3CC4(C3)SCc3sc(N)c(C#N)c34)n2)c(N)n1 (stereo partly drawn) [Compound 233, 2′-amino-1-(4-((1-(2-amino-6-methoxypyridin-3-yl)ethyl)(methyl)amino)-6-(((2R,7aS)-2-fluorotetrahydro-1H-pyrrolizin-7a(5H)-yl)methoxy)-1,3,5-triazin-2-yl)-6′H-spiro[azetidine-3,4′-thieno[3,4-b]thiophene]-3′-carbonitrile]
- IC50 [1]: 100 to 1000 nM
- IC50 [2]: 1000 to 20000 nM

Compound: CCN(c1nc(OC[C@@]23CCCN2C[C@H](F)C3)nc(N2CC3(C2)SCc2sc(N)c(C#N)c23)n1)C1(C(N)=O)CC1 [Compound 234, 1-[[4-(2-amino-3-cyano-spiro[6H-thieno[3,4-b]thiophene-4,3′-azetidine]-1′-yl)-6-[[(2R,8S)-2-fluoro-1,2,3,5,6,7-hexahydropyrrolizin-8-yl]methoxy]-1,3,5-triazin-2-yl]-ethyl-amino]cyclopropanecarboxamide]
- IC50 [1]: 10 to 100 nM
- IC50 [2]: 100 to 1000 nM

Compound: CN(c1nc(OC[C@@]23CCCN2C[C@H](F)C3)nc(N2CC3(C2)SCc2sc(N)c(C#N)c23)n1)[C@H]1[C@H]2CN[C@@H]1C2 [Compound 257, 2-amino-1′-[4-[[(1R,4R,5S)-2-azabicyclo[2.1.1]hexan-5-yl]-methyl-amino]-6-[[(2R,8S)-2-fluoro-1,2,3,5,6,7-hexahydropyrrolizin-8-yl]methoxy]-1,3,5-triazin-2-yl]spiro[6H-thieno[3,4-b]thiophene-4,3′-azetidine]-3-carbonitrile]
- IC50 [1]: 10 to 100 nM
- IC50 [2]: < 10 nM

Compound: CC(=O)N1CCC(N(C)c2nc(OC[C@@]34CCCN3C[C@H](F)C4)nc(N3CC4(C3)SCc3sc(N)c(C#N)c34)n2)C1C (stereo partly drawn) [Compound 260, 1′-[4-[(1-acetyl-2-methyl-pyrrolidin-3-yl)-methyl-amino]-6-[[(2R,8S)-2-fluoro-1,2,3,5,6,7-hexahydropyrrolizin-8-yl]methoxy]-1,3,5-triazin-2-yl]-2-amino-spiro[6H-thieno[3,4-b]thiophene-4,3′-azetidine]-3-carbonitrile]
- IC50 [1]: 10 to 100 nM
- IC50 [2]: 100 to 1000 nM

Compound: CC(O)CN(c1nc(OC[C@@]23CCCN2C[C@H](F)C3)nc(N2CC3(C2)SCc2sc(N)c(C#N)c23)n1)C1(C#N)CC1 (stereo partly drawn) [Compound 261, 2-amino-1′-[4-[(1-cyanocyclopropyl)-(2-hydroxypropyl)amino]-6-[[(2R,8S)-2-fluoro-1,2,3,5,6,7-hexahydropyrrolizin-8-yl]methoxy]-1,3,5-triazin-2-yl]spiro[6H-thieno[3,4-b]thiophene-4,3′-azetidine]-3-carbonitrile]
- IC50 [1]: < 10 nM
- IC50 [2]: < 10 nM

Compound: N#Cc1c(N)sc2c1C1(CN(c3nc(OC[C@@]45CCCN4C[C@H](F)C5)nc(N(CC4(O)CC4)C4(C#N)CC4)n3)C1)SC2 [Compound 263, 2-amino-1′-[4-[(1-cyanocyclopropyl)-[(1-hydroxycyclopropyl)methyl]amino]-6-[[(2R,8S)-2-fluoro-1,2,3,5,6,7-hexahydropyrrolizin-8-yl]methoxy]-1,3,5-triazin-2-yl]spiro[6H-thieno[3,4-b]thiophene-4,3′-azetidine]-3-carbonitrile]
- IC50 [1]: 10 to 100 nM
- IC50 [2]: 10 to 100 nM

Compound: N#Cc1c(N)sc2c1C1(CN(c3nc(OC[C@@]45CCCN4C[C@H](F)C5)nc(N4C5COCC4C5)n3)C1)SC2 [Compound 265, 2-amino-1′-[4-[[(2R,8S)-2-fluoro-1,2,3,5,6,7-hexahydropyrrolizin-8-yl]methoxy]-6-(3-oxa-6-azabicyclo[3.1.1]heptan-6-yl)-1,3,5-triazin-2-yl]spiro[6H-thieno[3,4-b]thiophene-4,3′-azetidine]-3-carbonitrile]
- IC50 [1]: 10 to 100 nM
- IC50 [2]: 100 to 1000 nM

Compound: N#Cc1c(N)sc2c1C1(CN(c3nc(OC[C@@]45CCCN4C[C@H](F)C5)nc(N(CC(N)=O)C4(C#N)CC4)n3)C1)SC2 [Compound 266, 2-[[4-(2-amino-3-cyano-spiro[6H-thieno[3,4-b]thiophene-4,3′-azetidine]-1′-yl)-6-[[(2R,8S)-2-fluoro-1,2,3,5,6,7-hexahydropyrrolizin-8-yl]methoxy]-1,3,5-triazin-2-yl]-(1-cyanocyclopropyl)amino]acetamide]
- IC50 [1]: < 10 nM
- IC50 [2]: < 10 nM

Compound: N#Cc1c(N)sc2c1C1(CN(c3nc(OC[C@@]45CCCN4C[C@H](F)C5)nc(N4C5CNC(=O)C4C5)n3)C1)SC2 (stereo partly drawn) [Compound 267, 2-amino-1′-[4-[[(2R,8S)-2-fluoro-1,2,3,5,6,7-hexahydropyrrolizin-8-yl]methoxy]-6-(2-oxo-3,6-diazabicyclo[3.1.1]heptan-6-yl)-1,3,5-triazin-2-yl]spiro[6H-thieno[3,4-b]thiophene-4,3′-azetidine]-3-carbonitrile]
- IC50 [1]: < 10 nM
- IC50 [2]: 10 to 100 nM

Compound: CC1(O)COCCN(c2nc(OC[C@@]34CCCN3C[C@H](F)C4)nc(N3CC4(C3)SCc3sc(N)c(C#N)c34)n2)C1 (stereo partly drawn) [Compound 268, 2-amino-1′-[4-[[(2R,8S)-2-fluoro-1,2,3,5,6,7-hexahydropyrrolizin-8-yl]methoxy]-6-(6-hydroxy-6-methyl-1,4-oxazepan-4-yl)-1,3,5-triazin-2-yl]spiro[6H-thieno[3,4-b]thiophene-4,3′-azetidine]-3-carbonitrile]
- IC50 [1]: < 10 nM
- IC50 [2]: < 10 nM

Compound: N#Cc1c(N)sc2c1C1(CN(c3nc(OC[C@@]45CCCN4C[C@H](F)C5)nc(N4C5CSCC4C5)n3)C1)SC2 [Compound 269, 2-amino-1′-[4-[[(2R,8S)-2-fluoro-1,2,3,5,6,7-hexahydropyrrolizin-8-yl]methoxy]-6-(3-thia-6-azabicyclo[3.1.1]heptan-6-yl)-1,3,5-triazin-2-yl]spiro[6H-thieno[3,4-b]thiophene-4,3′-azetidine]-3-carbonitrile]
- IC50 [1]: 10 to 100 nM
- IC50 [2]: 100 to 1000 nM

Compound: CC1(O)COCCN(c2nc(OCC3(CN4CCOCC4)CC3)nc(N3CC4(C3)SCc3sc(N)c(C#N)c34)n2)C1 (stereo not drawn) [Compound 270, 2-amino-1′-[4-(6-hydroxy-6-methyl-1,4-oxazepan-4-yl)-6-[[1-(morpholinomethyl)cyclopropyl]methoxy]-1,3,5-triazin-2-yl]spiro[6H-thieno[3,4-b]thiophene-4,3′-azetidine]-3-carbonitrile]
- IC50 [1]: < 10 nM
- IC50 [2]: < 10 nM
